Source: PMC5218480 (PLoS ONE, 2017)

Tested on: MV-4-11 cells
Assay: Gene expression microarray analysis (Affymetrix PrimeView) and GSEA
Assay type: cell-based, human
Set-up: RFU PODN (11730768_x_at) / Fold change /veh PODN (11730768_x_at) / RFU LINC00158 (11744669_a_at) / Fold change /veh LINC00158 (11744669_a_at) / RFU DUSP10 (11751237_a_at) / Fold change /veh DUSP10 (11751237_a_at) / RFU ID3 (11757404_x_at) / Fold change /veh ID3 (11757404_x_at) / RFU PLEKHG5 (11737974_s_at) / Fold change /veh PLEKHG5 (11737974_s_at) / RFU LRRC4B (11730491_at) / Fold change /veh LRRC4B (11730491_at) / RFU GIMAP4 (11747438_a_at) / Fold change /veh GIMAP4 (11747438_a_at) / RFU KRT8 (11758183_x_at) / Fold change /veh KRT8 (11758183_x_at) / RFU CNN1 (11734310_a_at) / Fold change /veh CNN1 (11734310_a_at) / RFU VPS37D (11726825_at) / Fold change /veh VPS37D (11726825_at) / RFU C10orf10 (11716522_x_at) / Fold change /veh C10orf10 (11716522_x_at) / RFU KIR2DL2 /// KIR2DL4 /// KIR2DL5A /// KIR2DL5B /// KIR2DS1 /// KIR2DS2 /// KIR2DS3 /// KIR2DS4 /// KIR3DL3 /// KIR3DL3 /// KIR3DS1 (11738374_at) / Fold change /veh KIR2DL2 /// KIR2DL4 /// KIR2DL5A /// KIR2DL5B /// KIR2DS1 /// KIR2DS2 /// KIR2DS3 /// KIR2DS4 /// KIR3DL3 /// KIR3DL3 /// KIR3DS1 (11738374_at) / RFU C1QL1 (11718748_at) / Fold change /veh C1QL1 (11718748_at) / RFU TMPRSS4 (11747572_a_at) / Fold change /veh TMPRSS4 (11747572_a_at) / RFU HAMP (11756126_x_at) / Fold change /veh HAMP (11756126_x_at) / RFU RNFT2 (11725882_a_at) / Fold change /veh RNFT2 (11725882_a_at) / RFU NR4A2 (11747474_a_at) / Fold change /veh NR4A2 (11747474_a_at) / RFU ABCC12 (11746883_a_at) / Fold change /veh ABCC12 (11746883_a_at) / RFU TMEM136 (11760407_x_at) / Fold change /veh TMEM136 (11760407_x_at) / RFU CLDN22 /// WWC2 (11732394_at) / Fold change /veh CLDN22 /// WWC2 (11732394_at) / RFU HLA-DPB1 (11760878_x_at) / Fold change /veh HLA-DPB1 (11760878_x_at) / RFU SPINT1 (11716480_a_at) / Fold change /veh SPINT1 (11716480_a_at) / RFU GAP43 (11754022_s_at) / Fold change /veh GAP43 (11754022_s_at) / RFU A4GNT (11735810_at) / Fold change /veh A4GNT (11735810_at) / RFU PRB3 (11715151_x_at) / Fold change /veh PRB3 (11715151_x_at) / RFU TUBB4B (11761932_at) / Fold change /veh TUBB4B (11761932_at) / RFU CAPN14 (11732068_a_at) / Fold change /veh CAPN14 (11732068_a_at) / RFU TMCC2 (11721928_a_at) / Fold change /veh TMCC2 (11721928_a_at) / RFU IRGQ (11745062_a_at) / Fold change /veh IRGQ (11745062_a_at) / RFU FAM174B (11720279_a_at) / Fold change /veh FAM174B (11720279_a_at) / RFU TMPRSS4 (11748680_a_at) / Fold change /veh TMPRSS4 (11748680_a_at) / RFU FAM212B (11763350_a_at) / Fold change /veh FAM212B (11763350_a_at) / RFU PLEKHG5 (11743358_a_at) / Fold change /veh PLEKHG5 (11743358_a_at) / RFU ZSCAN30 (11745921_a_at) / Fold change /veh ZSCAN30 (11745921_a_at) / RFU CMKLR1 (11741424_a_at) / Fold change /veh CMKLR1 (11741424_a_at) / RFU LOC101060620 /// MAPK8IP1 (11723275_at) / Fold change /veh LOC101060620 /// MAPK8IP1 (11723275_at) / RFU SPTSSB (11747773_x_at) / Fold change /veh SPTSSB (11747773_x_at) / RFU PRSS12 (11739890_at) / Fold change /veh PRSS12 (11739890_at) / RFU BIN1 (11741810_x_at) / Fold change /veh BIN1 (11741810_x_at) / RFU WNT11 (11732464_a_at) / Fold change /veh WNT11 (11732464_a_at) / RFU C10orf10 (11716521_a_at) / Fold change /veh C10orf10 (11716521_a_at) / RFU C5orf56 (11738089_at) / Fold change /veh C5orf56 (11738089_at) / RFU CYB561 (11721691_x_at) / Fold change /veh CYB561 (11721691_x_at) / RFU ANKRD19P (11752326_a_at) / Fold change /veh ANKRD19P (11752326_a_at) / RFU OR2T12 /// OR2T33 /// OR2T8 (11738714_s_at) / Fold change /veh OR2T12 /// OR2T33 /// OR2T8 (11738714_s_at) / RFU VCAN (11748164_a_at) / Fold change /veh VCAN (11748164_a_at) / RFU JSRP1 (11732532_at) / Fold change /veh JSRP1 (11732532_at) / RFU KRTAP10-11 (11738290_x_at) / Fold change /veh KRTAP10-11 (11738290_x_at) / RFU MYO3A (11730013_a_at) / Fold change /veh MYO3A (11730013_a_at) / RFU EBF3 (11725865_a_at) / Fold change /veh EBF3 (11725865_a_at) / RFU CAMK2N1 (11719241_x_at) / Fold change /veh CAMK2N1 (11719241_x_at) / RFU C5orf56 (11738088_a_at) / Fold change /veh C5orf56 (11738088_a_at) / RFU OLFML3 (11715873_a_at) / Fold change /veh OLFML3 (11715873_a_at) / RFU LOC100653217 /// NTM (11731650_a_at) / Fold change /veh LOC100653217 /// NTM (11731650_a_at) / RFU MAPK11 (11762145_a_at) / Fold change /veh MAPK11 (11762145_a_at) / RFU FIZ1 (11724087_x_at) / Fold change /veh FIZ1 (11724087_x_at) / RFU OASL (11726364_x_at) / Fold change /veh OASL (11726364_x_at) / RFU SOX15 (11748057_x_at) / Fold change /veh SOX15 (11748057_x_at) / RFU CD79A (11719716_a_at) / Fold change /veh CD79A (11719716_a_at) / RFU HIST1H1D (11736915_at) / Fold change /veh HIST1H1D (11736915_at) / RFU CASKIN2 (11723855_a_at) / Fold change /veh CASKIN2 (11723855_a_at) / RFU LOC730098 (11760151_x_at) / Fold change /veh LOC730098 (11760151_x_at) / RFU OR4N2 (11742367_at) / Fold change /veh OR4N2 (11742367_at) / RFU PRRT2 (11749266_a_at) / Fold change /veh PRRT2 (11749266_a_at) / RFU SNX32 (11753110_a_at) / Fold change /veh SNX32 (11753110_a_at) / RFU CDHR5 (11726645_a_at) / Fold change /veh CDHR5 (11726645_a_at) / RFU RCAN1 (11760418_a_at) / Fold change /veh RCAN1 (11760418_a_at) / RFU FAM167A (11723789_a_at) / Fold change /veh FAM167A (11723789_a_at) / RFU FAM26E (11764081_at) / Fold change /veh FAM26E (11764081_at) / RFU ISYNA1 (11749810_s_at) / Fold change /veh ISYNA1 (11749810_s_at) / RFU ACY1 (11761880_at) / Fold change /veh ACY1 (11761880_at) / RFU 11764098_at / Fold change /veh 11764098_at / RFU SAMD14 (11745864_x_at) / Fold change /veh SAMD14 (11745864_x_at) / RFU NPB (11741838_a_at) / Fold change /veh NPB (11741838_a_at) / RFU TMPRSS6 (11731388_a_at) / Fold change /veh TMPRSS6 (11731388_a_at) / RFU KRTAP10-2 (11738614_at) / Fold change /veh KRTAP10-2 (11738614_at) / RFU ARHGAP8 /// PRR5-ARHGAP8 (11727945_x_at) / Fold change /veh ARHGAP8 /// PRR5-ARHGAP8 (11727945_x_at) / RFU KRTAP5-7 /// NADSYN1 (11734609_at) / Fold change /veh KRTAP5-7 /// NADSYN1 (11734609_at) / RFU RASL12 (11751679_a_at) / Fold change /veh RASL12 (11751679_a_at) / RFU CDKN2B (11736163_a_at) / Fold change /veh CDKN2B (11736163_a_at) / RFU PRF1 (11729649_at) / Fold change /veh PRF1 (11729649_at) / RFU, ZNF638 /// ZNF638-IT1 / Fold change vs veh, ZNF638 /// ZNF638-IT1 / RFU, PANK3 / Fold change vs veh, PANK3 / RFU, SH3YL1 / Fold change vs veh, SH3YL1 / RFU, ZEB2 / Fold change vs veh, ZEB2 / RFU, NRIP1 / Fold change vs veh, NRIP1 / RFU, PTTG1IP / Fold change vs veh, PTTG1IP / RFU, CAPN2 / Fold change vs veh, CAPN2 / RFU, MED14 / Fold change vs veh, MED14 / RFU, SNORA58 / Fold change vs veh, SNORA58 / RFU, C1orf63 / Fold change vs veh, C1orf63 / RFU, LRRFIP1 / Fold change vs veh, LRRFIP1 / RFU, NDUFAF7 / Fold change vs veh, NDUFAF7 / RFU, SLC12A2 / Fold change vs veh, SLC12A2 / RFU, IBTK / Fold change vs veh, IBTK / RFU, ESF1 / Fold change vs veh, ESF1 / Fold change vs veh, TMEM50B / RFU, TAOK1 / Fold change vs veh, TAOK1 / RFU, ACBD3 / Fold change vs veh, ACBD3 / RFU, TMA16 / Fold change vs veh, TMA16 / RFU, RWDD3 / Fold change vs veh, RWDD3 / RFU, BCAT1 / Fold change vs veh, BCAT1 / RFU, EDEM3 / Fold change vs veh, EDEM3 / RFU, TMEM33 / Fold change vs veh, TMEM33 / RFU, WDR75 / Fold change vs veh, WDR75 / RFU, AHCTF1 / Fold change vs veh, AHCTF1 / RFU, TFRC / Fold change vs veh, TFRC / RFU, ZDHHC17 / Fold change vs veh, ZDHHC17 / RFU, NOM1 / Fold change vs veh, NOM1 / RFU, ARL8B / Fold change vs veh, ARL8B / RFU, ZBTB11 / Fold change vs veh, ZBTB11 / RFU, TAMM41 / Fold change vs veh, TAMM41 / RFU, KIAA1704 /// LOC100996395 / Fold change vs veh, KIAA1704 /// LOC100996395 / RFU, ING1 / Fold change vs veh, ING1 / RFU, TRMT61B / Fold change vs veh, TRMT61B / RFU, FUBP3 / Fold change vs veh, FUBP3 / RFU, TP53 / Fold change vs veh, TP53 / RFU, TNKS2 / Fold change vs veh, TNKS2 / RFU, ZFP14 / Fold change vs veh, ZFP14 / RFU, ACTR2 / Fold change vs veh, ACTR2 / RFU, PPP3R1 / Fold change vs veh, PPP3R1 / RFU, PIK3R1 / Fold change vs veh, PIK3R1 / RFU, HNRNPA1 / Fold change vs veh, HNRNPA1 / RFU, RNF170 / Fold change vs veh, RNF170 / RFU, ZNF28 / Fold change vs veh, ZNF28 / RFU, RNGTT / Fold change vs veh, RNGTT / RFU, OGT / Fold change vs veh, OGT / RFU, BRD1 / Fold change vs veh, BRD1 / RFU, MARS / Fold change vs veh, MARS / RFU, ZNF655 / Fold change vs veh, ZNF655 / RFU, FAHD1 / Fold change vs veh, FAHD1 / RFU, BDP1 / Fold change vs veh, BDP1 / RFU, LRRCC1 / Fold change vs veh, LRRCC1 / RFU, ARID1A / Fold change vs veh, ARID1A / RFU, ZNF146 / Fold change vs veh, ZNF146 / RFU, ZNF330 / Fold change vs veh, ZNF330 / RFU, GPN3 / Fold change vs veh, GPN3 / RFU, C9orf123 / Fold change vs veh, C9orf123 / RFU, N4BP2L2 / Fold change vs veh, N4BP2L2 / RFU, ARFIP1 / Fold change vs veh, ARFIP1 / RFU, FAM179B / Fold change vs veh, FAM179B / RFU, BCL10 / Fold change vs veh, BCL10 / RFU, UHRF1BP1L / Fold change vs veh, UHRF1BP1L / RFU, BET1 / Fold change vs veh, BET1 / RFU, CNOT2 / Fold change vs veh, CNOT2 / RFU, ZNF268 / Fold change vs veh, ZNF268 / Fold change vs veh, ZNF507 / RFU, DGCR2 / Fold change vs veh, DGCR2 / RFU, WDSUB1 / Fold change vs veh, WDSUB1 / Fold change vs veh, HSP90B1 /// MIR3652 / RFU, ADSS / Fold change vs veh, ADSS / RFU, GK / Fold change vs veh, GK / RFU, ZNF148 / Fold change vs veh, ZNF148 / RFU, TAF9 / Fold change vs veh, TAF9 / RFU, SLC1A5 / Fold change vs veh, SLC1A5 / RFU, SLMO2 / Fold change vs veh, SLMO2 / RFU, ABCC4 / Fold change vs veh, ABCC4 / RFU, LOC101060439 /// RAP1B / Fold change vs veh, LOC101060439 /// RAP1B / RFU, RFX7 / Fold change vs veh, RFX7 / RFU, GTPBP10 / Fold change vs veh, GTPBP10 / RFU, CNEP1R1 / Fold change vs veh, CNEP1R1 / RFU, BIVM-ERCC5 /// ERCC5 / Fold change vs veh, BIVM-ERCC5 /// ERCC5 / RFU, ILF3 / Fold change vs veh, ILF3 / RFU 11762660_at / Fold change /veh 11762660_at / RFU VCAN (11757783_s_at) / Fold change /veh VCAN (11757783_s_at) / RFU DDX43 (11728927_at) / Fold change /veh DDX43 (11728927_at) / RFU KRT8 (11758188_x_at) / Fold change /veh KRT8 (11758188_x_at) / RFU NKD1 (11759106_at) / Fold change /veh NKD1 (11759106_at) / RFU SRD5A1 (11742802_a_at) / Fold change /veh SRD5A1 (11742802_a_at) / RFU TPSAB1 /// TPSB2 (11721975_s_at) / Fold change /veh TPSAB1 /// TPSB2 (11721975_s_at) / RFU GSTM3 (11746129_a_at) / Fold change /veh GSTM3 (11746129_a_at) / RFU IL23R (11737362_x_at) / Fold change /veh IL23R (11737362_x_at) / RFU TMEM51 (11727254_a_at) / Fold change /veh TMEM51 (11727254_a_at) / RFU PIWIL2 (11732686_x_at) / Fold change /veh PIWIL2 (11732686_x_at) / RFU ORM1 (11744905_x_at) / Fold change /veh ORM1 (11744905_x_at) / RFU CCDC152 (11743942_at) / Fold change /veh CCDC152 (11743942_at) / RFU ECM1 (11717891_a_at) / Fold change /veh ECM1 (11717891_a_at) / RFU IL23R (11748794_a_at) / Fold change /veh IL23R (11748794_a_at) / RFU TNFAIP8L3 (11732012_x_at) / Fold change /veh TNFAIP8L3 (11732012_x_at) / RFU MBOAT4 (11741988_at) / Fold change /veh MBOAT4 (11741988_at) / RFU 11764193_at / Fold change /veh 11764193_at / RFU TMEM53 (11763286_at) / Fold change /veh TMEM53 (11763286_at) / RFU MAGEB2 (11727129_at) / Fold change /veh MAGEB2 (11727129_at) / RFU TMEM200A (11744735_a_at) / Fold change /veh TMEM200A (11744735_a_at) / RFU CCDC152 (11751479_a_at) / Fold change /veh CCDC152 (11751479_a_at) / RFU FAM211A (11726209_a_at) / Fold change /veh FAM211A (11726209_a_at) / RFU RGS16 (11746705_a_at) / Fold change /veh RGS16 (11746705_a_at) / RFU VCAN (11755009_s_at) / Fold change /veh VCAN (11755009_s_at) / RFU RHOB (11743442_s_at) / Fold change /veh RHOB (11743442_s_at) / RFU RGS16 (11720943_a_at) / Fold change /veh RGS16 (11720943_a_at) / RFU RGS16 (11720944_at) / Fold change /veh RGS16 (11720944_at) / RFU, VPS4B / Fold change vs veh, VPS4B / RFU, CREB1 / Fold change vs veh, CREB1 / RFU, DNAJC13 / Fold change vs veh, DNAJC13 / RFU, GNAQ / Fold change vs veh, GNAQ / RFU, CDK5R1 / Fold change vs veh, CDK5R1 / RFU, ZRANB3 / Fold change vs veh, ZRANB3 / RFU, CUL4A / Fold change vs veh, CUL4A / RFU, CCNY / Fold change vs veh, CCNY / RFU, UFL1 / Fold change vs veh, UFL1 / RFU, COG3 / Fold change vs veh, COG3 / RFU, DIAPH2 / Fold change vs veh, DIAPH2 / RFU, SKA2 / Fold change vs veh, SKA2 / RFU, AFF3 / Fold change vs veh, AFF3 / RFU, LMF1 / Fold change vs veh, LMF1 / RFU, IPO11 / Fold change vs veh, IPO11 / RFU, DFFB / Fold change vs veh, DFFB / RFU, FOXP1 / Fold change vs veh, FOXP1 / RFU, CARD8 / Fold change vs veh, CARD8 / RFU, STRN3 / Fold change vs veh, STRN3 / RFU, ADK / Fold change vs veh, ADK / RFU, RASSF2 / Fold change vs veh, RASSF2 / RFU, WIPF1 / Fold change vs veh, WIPF1 / RFU, LARP1B / Fold change vs veh, LARP1B / RFU, RASA1 / Fold change vs veh, RASA1 / RFU, RB1 / Fold change vs veh, RB1 / RFU, PPFIA1 / Fold change vs veh, PPFIA1 / RFU, MAT2A / Fold change vs veh, MAT2A / RFU, CCT5 / Fold change vs veh, CCT5 / RFU, WDR92 / Fold change vs veh, WDR92 / RFU, CUX1 / Fold change vs veh, CUX1 / RFU, TTC7A / Fold change vs veh, TTC7A / RFU, TMEM135 / Fold change vs veh, TMEM135 / RFU, DEPTOR / Fold change vs veh, DEPTOR / RFU, CPM / Fold change vs veh, CPM / RFU, DNAJB6 / Fold change vs veh, DNAJB6 / RFU, CACNA2D3 / Fold change vs veh, CACNA2D3 / RFU, DTX4 / Fold change vs veh, DTX4 / RFU, TFCP2 / Fold change vs veh, TFCP2 / RFU, GMCL1 /// GMCL1P1 / Fold change vs veh, GMCL1 /// GMCL1P1 / RFU, AEBP2 / Fold change vs veh, AEBP2 / RFU, SNHG1 /// SNORD22 /// SNORD25 /// SNORD26 /// SNORD27 /// SNORD28 /// SNORD29 /// SNORD31 / Fold change vs veh, SNHG1 /// SNORD22 /// SNORD25 /// SNORD26 /// SNORD27 /// SNORD28 /// SNORD29 /// SNORD31 / Fold change (Aza/veh), C12orf56 (ProbeSet 11735607_a_at) / Fold change (ACY-1035/veh), C12orf56 (ProbeSet 11735607_a_at) / Fold change (Aza/veh), FGFR1OP (ProbeSet 11751329_s_at) / Fold change (ACY-1035/veh), FGFR1OP (ProbeSet 11751329_s_at) / Fold change (Aza/veh), VPS36 (ProbeSet 11739960_a_at) / Fold change (ACY-1035/veh), VPS36 (ProbeSet 11739960_a_at) / RFU SYPL1 (11715823_x_at) / Fold change /veh SYPL1 (11715823_x_at) / RFU IGFBP7 (11715501_s_at) / Fold change /veh IGFBP7 (11715501_s_at) / RFU REEP3 (11722064_at) / Fold change /veh REEP3 (11722064_at) / RFU IGLL1 (11728026_x_at) / Fold change /veh IGLL1 (11728026_x_at): dose or concentration left out as unconfirmed
Details: ProbeSet 11724877_a_at; LIST D

`Nc1ncn([C@@H]2O[C@H](CO)[C@@H](O)[C@H]2O)c(=O)n1` [azacitidine] was tested, and the “Fold change vs veh, AEBP2” value was 0.82.
